Measurements: the supplement of paper PMC8372320

test: photocatalytic hydrogen evolution rate (per 5 mg catalyst); higher = more photocatalytic H2 evolution; extreme values may be limits of the assay; conditions: catalyst mass (mg): 5; Pt cocatalyst (wt%): 3; sacrificial medium: triethylamine/methanol/water 1:1:1
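Note: aromatic molecules in triethylamine/methanol/water with Pt photoreduced in situ, irradiated 3 h under a 1 sun AM 1.5G solar simulator (350–1000 nm), H2 quantified by headspace gas chromatography; listed molecule itself used as the photocatalyst at 5 mg per vial.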

| SMILES | photocatalytic hydrogen evolution rate [µmol/h] |
| --- | --- |
| O=C(O)c1ccc(-c2cc(-c3ccc(C(=O)O)cc3)cc(-c3ccc(C(=O)O)cc3)c2)cc1 | 0.00212 |
| O=Cc1c(O)cc(O)cc1O | 0 |
| Cc1cc(-c2cc(C)c(N)c(C)c2)cc(C)c1N | 0 |
| Brc1ccc(Br)c2nonc12 | 0 |
| CC1(C)c2cc(B3OC(C)(C)C(C)(C)O3)ccc2-c2ccc(B3OC(C)(C)C(C)(C)O3)cc21 | 0.0142 |
| Oc1c(F)c(F)c(O)c(F)c1F | 0 |
| O=C1c2ccc(O)cc2C(=O)c2ccc(O)cc21 | 2.69 |
| Brc1ccc2[nH]c3ccc(Br)cc3c2c1 | 0 |
| Fc1c(F)c(-c2c(F)c(F)c(Br)c(F)c2F)c(F)c(F)c1Br | 0 |
| N#Cc1cc(Br)cc(Br)c1O | 0.31 |
| c1ccc(N(c2ccccc2)c2ccccc2)cc1 | 0 |
| COc1ccc(Nc2ccc(OC)cc2)cc1 | 0.055 |
| O=C1C(O)=C(O)C(=O)C(O)=C1O | 0 |
| O=C1C=C(Br)C(=O)C=C1Br | 0 |
| Cc1[nH]c(C=O)cc1C#N | 0 |
| N#Cc1c(-n2c3ccccc3c3ccccc32)c(-n2c3ccccc3c3ccccc32)cc(-n2c3ccccc3c3ccccc32)c1-n1c2ccccc2c2ccccc21 | 1.65 |
| c1ccc(P(c2ccccc2)c2ccc3ccccc3c2-c2c(P(c3ccccc3)c3ccccc3)ccc3ccccc23)cc1 | 0 |
| Cc1cc(C#N)c(C)cc1C#N | 0 |
| O=C(c1ccccc1)c1cc(C(=O)c2ccccc2)cc(C(=O)c2ccccc2)c1 | 14.2 |
| Fc1ccc(-c2nc(-c3ccccc3)nc(-c3ccccc3)n2)cc1 | 0 |
| CCc1c(CBr)c(CC)c(CBr)c(CC)c1CBr | 0 |
| N#CCc1ccccc1CC#N | 0 |
| N#Cc1cncc(Br)n1 | 0.0873 |
| BrCc1ccc(CBr)cc1 | 0 |
| CCOC(=O)c1cncc(C(=O)OCC)c1 | 0.00607 |

| SMILES | photocatalytic hydrogen evolution rate [µmol/h] |
| --- | --- |
| COc1cc(C#N)c(C#N)cc1OC | 0 |
| Brc1cc2ccc3cc(Br)cc4ccc(c1)c2c34 | 0 |
| COC(=O)c1cc(C(=O)OC)c(C(=O)OC)cc1C(=O)OC | 0 |
| O=C(O)c1ccc(-c2ccc(-c3cc(-c4ccc(-c5ccc(C(=O)O)cc5)cc4)cc(-c4ccc(-c5ccc(C(=O)O)cc5)cc4)c3)cc2)cc1 | 0 |
| c1ccc(-c2ccc(-c3ccc(-c4ccccc4)cc3)cc2)cc1 | 0 |
| c1ccc(C(=C(c2ccccc2)c2ccccc2)c2ccccc2)cc1 | 0 |
| c1ccc(C(c2ccccc2)c2ccccc2)cc1 | 0 |
| N#Cc1ccc(-c2ccc(C#N)cc2)cc1 | 0 |
| Nc1c(Br)cnc(Cl)c1Br | 0 |
| c1ccc(-c2nc(-c3ccccc3)nc(-c3ccc(-c4ccc(-c5nc(-c6ccccc6)nc(-c6ccccc6)n5)cc4)cc3)n2)cc1 | 0 |
| N#Cc1cnccc1Br | 0.0501 |
| c1ccc(-c2c(-c3ccccc3)c(-c3ccccc3)c(-c3ccccc3)c(-c3ccccc3)c2-c2ccccc2)cc1 | 0 |
| Brc1ccc(Br)cc1 | 0 |
| O=C1C(Cl)=C(Cl)C(=O)C(Cl)=C1Cl | 0 |
| c1ccc2c(c1)ccc1c3ccccc3ccc21 | 0 |
| Oc1ccc2cc(Br)ccc2c1-c1c(O)ccc2cc(Br)ccc12 | 0 |
| CCCCCCCCCCCCCCCCCCn1c(=O)c2ccc3sc4ccccc4c4ccc(c1=O)c2c34 | 12.3 |
| O=Cc1ccc(-c2ccc(F)cc2)cc1 | 5.25 |
| O=Cc1ccc2c(c1)c1ccccc1n2Cc1ccccc1 | 2.52 |
| O=Cc1ccc(-c2nc(-c3ccc(C=O)cc3)nc(-c3ccc(C=O)cc3)n2)cc1 | 0.298 |
| OC1(c2ccccc2)c2cc(Br)ccc2-c2ccc(Br)cc21 | 0.101 |
| O=C(C(=O)c1ccc(C(=O)C(=O)c2ccccc2)cc1)c1ccccc1 | 0.00597 |
| N#CC(C#N)=C1CC(=C(C#N)C#N)c2ccccc21 | 0 |
| Brc1ccccc1-c1ccccc1Br | 0 |
| O=Cc1cc(F)c(O)c(F)c1 | 0.191 |

| SMILES | photocatalytic hydrogen evolution rate [µmol/h] |
| --- | --- |
| OCc1ccc(-c2ccc(CO)cc2)cc1 | 0.00977 |
| Brc1cnc(Br)s1 | 0 |
| Brc1ccc2ccccc2c1-c1c(Br)ccc2ccccc12 | 0 |
| COc1ccc(OC)c(C=O)c1 | 10.9 |
| N#Cc1ccc(Cc2ccc(C#N)cc2)cc1 | 0 |
| Fc1c(F)c(F)c(B(c2c(F)c(F)c(F)c(F)c2F)c2c(F)c(F)c(F)c(F)c2F)c(F)c1F | 0.0455 |
| Fc1c(I)ccc(I)c1F | 0 |
| N#Cc1cncc(C=O)c1 | 0.0889 |
| O=Cc1ccc(-c2ccc(-c3ccc(C=O)s3)s2)s1 | 1.6 |
| Brc1ccc(-c2ccc(-c3ccc(Br)cc3)cc2)cc1 | 0 |
| Cc1c(C)c(Br)c(C)c(C)c1Br | 0 |
| CCN(CCO)c1ccc(N=Nc2ccc([N+](=O)[O-])cc2)cc1 | 0 |
| Fc1cc(Br)c(Br)cc1F | 0 |
| Cc1ccc(Nc2ccc(C)cc2)cc1 | 0.074 |
| Brc1cnc(Br)nc1 | 0 |
| O=C1C=C(O)C(=O)C=C1O | 0 |
| O=Cc1ccc(N(c2ccc(C=O)cc2)c2ccc(C=O)cc2)cc1 | 1.46 |
| C=Cc1ccc2c(=C(C#N)C#N)c3ccccc3c(=C(C#N)C#N)c2c1 | 0 |
| c1cc(-c2cn[nH]c2)ccc1-c1cn[nH]c1 | 0 |
| N#Cc1c2ccccc2cc2ccccc12 | 0.294 |
| O=Cc1ccc(-c2ccncc2)cc1 | 3.29 |
| c1ccc(Nc2ccc(Nc3ccccc3)cc2)cc1 | 0 |
| Cc1ccc(N(c2ccc(C)cc2)c2ccc(C=O)cc2)cc1 | 0.0671 |

Next, values leading:

| photocatalytic hydrogen evolution rate [µmol/h] | SMILES |
| --- | --- |
| 0 | O=C1CCC(c2ccccc2)CC1 |
| 0 | C(C#Cc1ccccc1)#Cc1ccccc1 |
| 0.0132 | CC1(C)c2ccccc2Oc2ccccc21 |
| 0 | Brc1ccc2c(c1)[nH]c1cc(Br)ccc12 |
| 0.00242 | OCc1cccc2cc3cccc(CO)c3cc12 |
| 0 | N#Cc1cc(N)ccc1Cl |
| 0 | Nc1ccc2ccc3cccc4ccc1c2c34 |
| 0 | O=Cc1cc(O)ccc1O |
| 0 | O=C(O)[C@@H]1CCC(=O)N1C(=O)OCc1ccccc1 |
| 0 | O=Cc1ccc(Br)cn1 |
| 0.017 | O=Cc1ccc(/C=C/c2ccccc2)cc1 |
| 0 | Brc1ccc2c(c1)Cc1cc(Br)ccc1-2 |
| 4.22 | N#CCc1ccc(C=O)cc1 |
| 0 | N#Cc1ccc(Br)cc1F |
| 0.957 | O=Cc1cc(Br)ccc1Br |
| 0 | c1ccc(-c2nc3ccccc3[nH]2)cc1 |
| 0.0237 | CCOC(=O)c1ccc(C(=O)OCC)nc1 |
| 0 | Cc1cc(C)cc([N+](=O)[O-])c1 |
| 0.0838 | COC(=O)c1ccc(C(=O)OC)cc1 |
| 0.0661 | CCc1ccc(C(=O)CC#N)cc1 |
| 0 | N#Cc1cccc(Br)n1 |
| 0 | O=Cc1cccc(O)c1 |
| 0.101 | O=C1CCc2ccccc21 |
| 24.5 | O=C1NC(=O)c2cccc3cccc1c23 |
| 3.25 | O=C(c1ccccc1)c1ccccc1 |

| photocatalytic hydrogen evolution rate [µmol/h] | SMILES |
| --- | --- |
| 0 | N#Cc1cccnc1-c1ncccc1C#N |
| 0 | CC(=O)c1c(O)cccc1O |
| 0 | N#Cc1ccc(Br)nc1 |
| 0.0393 | O=C(O)Cc1ccc(-c2ccccc2)cc1 |
| 0 | FC(F)(F)c1cc(Br)ccc1Br |
| 0 | N#Cc1ccc(F)c(N)c1 |
| 0.0489 | N#Cc1ccc2ccc(C#N)cc2c1 |
| 0.0112 | COC(=O)c1ccc(C(=O)OC)c(N)c1 |
| 0.153 | N#Cc1ccc(C#N)c(OC(F)(F)F)c1 |
| 0 | Nc1nc2ccccc2[nH]1 |
| 0 | Cc1ccc(C#N)cc1N |
| 0.104 | N#Cc1ccc(C=O)cc1F |
| 0.009 | O=S1(=O)c2ccc(Br)cc2-c2cc(Br)ccc21 |
| 0 | N#CCc1ccc(Cl)nc1 |
| 0 | Nc1cccc(N)c1 |
| 0.0187 | N#Cc1ccnc(Br)c1 |
| 0.0732 | Nc1cc(Br)ccc1-c1ccc(Br)cc1N |
| 0.478 | c1cnc2c(c1)ccc1cccnc12 |
| 0 | C(=C\c1ccccc1)/c1ccccc1 |
| 1.06 | O=Cc1cccc(C(=O)O)c1 |
| 0 | c1ccc2c(c1)[nH]c1ccccc12 |
| 2.68 | O=C1CCc2cccc(O)c21 |
| 2.56 | O=C1c2ccccc2-c2ccccc21 |
| 0 | CC(Oc1ccc(Br)cc1Br)C(=O)NN (configuration not stated) |
